pIC50: −log10 of the molar value.
Target: T1, b-Raf (Homo sapiens, UniProt P15056, V600E)
T1 construct: endogenous in cells; host or cells: A2058 human melanoma cells
Assay: Raf cellular assay (phospho-Mek1/2 ELISA in A2058 cells)
Type: cell-based
Details: Table 3; human melanoma A2058 cells (b-Raf mutation), Mek1/2 Ser217/221 phosphorylation, 1 hour incubation; read-out: pMEK IC50
Method in brief: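 A2058 melanoma cells (B-Raf mutant), seeded overnight in 10% FBS DMEM, were exposed to compounds (11-point 1:3 series, duplicate) for 1 h at 37 °C. Lysates were captured on anti-Mek1-coated plates and Mek1/2 Ser217/221 phosphorylation was read by anti-phospho-Mek1/2 ELISA, HRP/TMB, 450 nm.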

T1 sequence (P15056 whole entry V600E): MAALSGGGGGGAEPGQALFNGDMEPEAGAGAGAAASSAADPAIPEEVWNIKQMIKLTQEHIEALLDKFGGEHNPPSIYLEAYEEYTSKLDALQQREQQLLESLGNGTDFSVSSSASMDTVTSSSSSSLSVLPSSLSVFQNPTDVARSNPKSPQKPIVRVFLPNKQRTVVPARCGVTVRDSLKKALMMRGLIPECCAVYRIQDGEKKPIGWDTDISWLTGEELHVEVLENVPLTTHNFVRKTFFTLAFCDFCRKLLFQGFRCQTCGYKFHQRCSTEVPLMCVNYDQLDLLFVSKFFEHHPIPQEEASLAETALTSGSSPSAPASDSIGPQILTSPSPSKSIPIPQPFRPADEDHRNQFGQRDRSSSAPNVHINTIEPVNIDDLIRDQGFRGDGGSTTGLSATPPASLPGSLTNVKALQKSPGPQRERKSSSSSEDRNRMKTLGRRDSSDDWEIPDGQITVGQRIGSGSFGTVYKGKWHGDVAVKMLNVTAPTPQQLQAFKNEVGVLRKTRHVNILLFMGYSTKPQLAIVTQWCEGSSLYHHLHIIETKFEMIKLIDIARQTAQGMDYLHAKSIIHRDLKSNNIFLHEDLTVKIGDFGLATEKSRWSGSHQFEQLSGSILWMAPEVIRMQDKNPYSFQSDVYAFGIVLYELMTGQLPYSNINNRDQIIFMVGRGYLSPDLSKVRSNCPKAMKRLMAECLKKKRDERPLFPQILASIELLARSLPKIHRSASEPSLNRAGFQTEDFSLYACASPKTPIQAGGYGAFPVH

Row | Structure (SMILES) | pIC50
1 | Cc1c[nH]c2ncc(-c3nn(C4CCN(C)CC4)cc3-c3ccnc(NCC(F)F)n3)cc12 [Example B-113, N-(2,2-difluoroethyl)-4-[1-(1-methylpiperidin-4-yl)-3-(3-methyl-1H-pyrrolo[2,3-b]pyridin-5-yl)-1H-pyrazol-4-yl]pyrimidin-2-amine] | 8.83
2 | COc1cc(-c2nn(C)cc2-c2ccnc(NCCC#N)n2)cnc1N [Example G-2, 3-({4-[3-(6-amino-5-methoxypyridin-3-yl)-1-methyl-1H-pyrazol-4-yl]pyrimidin-2-yl}amino)propanenitrile] | 8.28
3 | N#CCCNc1nccc(-c2cn([C@@H]3CCOC3)nc2-c2cnc3[nH]ccc3c2)n1 [Example B-75, 3-[(4-{3-(1H-pyrrolo[2,3-b]pyridin-5-yl)-1-[(3R)-tetrahydrofuran-3-yl]-1H-pyrazol-4-yl}pyrimidin-2-yl)amino]propanenitrile] | 7.62
4 | Cc1c[nH]c2ncc(-c3nn(CC(F)F)cc3-c3ccnc(NCCC#N)n3)cc12 [Example B-93, 3-(4-(1-(2,2-difluoroethyl)-3-(3-methyl-1H-pyrrolo[2,3-b]pyridin-5-yl)-1H-pyrazol-4-yl)pyrimidin-2-ylamino)propanenitrile] | 9.56
5 | CN1CCC(n2cc(-c3ccncn3)c(-c3cnc4[nH]cc(Cl)c4c3)n2)CC1 [Example F-2, 3-chloro-5-[1-(1-methylpiperidin-4-yl)-4-pyrimidin-4-yl-1H-pyrazol-3-yl]-1H-pyrrolo[2,3-b]pyridine] | 6.71
6 | CN1CCC(n2cc(-c3ccnc(NCC(F)F)n3)c(-c3cnc4[nH]cc(Cl)c4c3)n2)CC1 [Example B-114, 4-[3-(3-chloro-1H-pyrrolo[2,3-b]pyridin-5-yl)-1-(1-methylpiperidin-4-yl)-1H-pyrazol-4-yl]-N-(2,2-difluoroethyl)pyrimidin-2-amine] | 8.65
7 | Clc1c[nH]c2ncc(-c3nn(C4CCNCC4)cc3-c3ccncn3)cc12 [Example B-64, 3-chloro-5-(1-piperidin-4-yl-4-pyrimidin-4-yl-1H-pyrazol-3-yl)-1H-pyrrolo[2,3-b]pyridine] | 7.21
8 | Cc1n[nH]c2ncc(-c3nn(CC(F)F)cc3-c3ccnc(NCC(F)F)n3)cc12 [Example G-3, N-(2,2-difluoroethyl)-4-[1-(2,2-difluoroethyl)-3-(3-methyl-1H-pyrazolo[3,4-b]pyridin-5-yl)-1H-pyrazol-4-yl]pyrimidin-2-amine] | 7.64
9 | OCCNc1nccc(-c2cn(CC(F)F)nc2-c2cnc3[nH]cc(Cl)c3c2)n1 [Example B-106, 2-({4-[3-(3-chloro-1H-pyrrolo[2,3-b]pyridin-5-yl)-1-(2,2-difluoroethyl)-1H-pyrazol-4-yl]pyrimidin-2-yl}amino)ethanol] | 7.98
10 | COc1cc(-c2nn(C(C)C)cc2-c2ccnc(NC[C@H](C)O)n2)cnc1N [Example B-111, (2S)-1-({4-[3-(6-amino-5-methoxypyridin-3-yl)-1-isopropyl-1H-pyrazol-4-yl]pyrimidin-2-yl}amino)propan-2-ol] | 8.21
11 | CC(C)n1cc(-c2ccnc(NCCC#N)n2)c(-c2cnc3[nH]ccc3c2)n1 [Example B-50, 3-({4-[1-isopropyl-3-(1H-pyrrolo[2,3-b]pyridin-5-yl)-1H-pyrazol-4-yl]pyrimidin-2-yl}amino)-propanenitrile] | 8.14
12 | CC(C)n1cc(-c2ccnc3[nH]ccc23)c(-c2cnc3[nH]ccc3c2)n1 [Example H-3, 4-(1-isopropyl-3-(1H-pyrrolo[2,3-b]pyridin-5-yl)-1H-pyrazol-4-yl)-1H-pyrrolo[2,3-b]pyridine] | 6.37
13 | COc1cc(-c2nn(C3CC3)cc2-c2ccnc(N)n2)cnc1N [Example B-56, 4-[3-(6-amino-5-methoxypyridin-3-yl)-1-cyclopropyl-1H-pyrazol-4-yl]pyrimidin-2-amine] | 7.08
14 | N#CCCNc1nccc(-c2cn(CC(F)F)nc2-c2cnc3c(c2)CC(=O)N3)n1 [Example B-95, 3-(4-(1-(2,2-difluoroethyl)-3-(2-oxo-2,3-dihydro-1H-pyrrolo[2,3-b]pyridin-5-yl)-1H-pyrazol-4-yl)-pyrimidin-2-ylamino)propanenitrile] | 5.78
15 | CC(C)(CO)n1cc(-c2ccnc(NCC(F)F)n2)c(-c2cnc3[nH]ccc3c2)n1 [Example B-48, 2-[4-{2-[(2,2-difluoroethyl)amino]pyrimidin-4-yl}-3-(1H-pyrrolo[2,3-b]pyridin-5-yl)-1H-pyrazol-1-yl]-2-methylpropan-1-ol] | 7.52
16 | Cn1ccc2ncc(-c3nn(C(C)(C)CO)cc3-c3ccnc(NCCC#N)n3)cc21 [Example B-37, 3-({4-[1-(2-hydroxy-1,1-dimethylethyl)-3-(1-methyl-1H-pyrrolo[3,2-b]pyridin-6-yl)-1H-pyrazol-4-yl]pyrimidin-2-yl}amino)propanenitrile] | 7.36
17 | C[C@H](O)CNc1nccc(-c2cn([C@H]3C[C@@H](F)C3)nc2-c2cnc3[nH]cc(Cl)c3c2)n1 [Example B-84, (S)-1-(4-(3-(3-chloro-1H-pyrrolo[2,3-b]pyridin-5-yl)-1-((1s,3s)-3-fluorocyclobutyl)-1H-pyrazol-4-yl)pyrimidin-2-ylamino)propan-2-ol] | 7.73

Row | Structure (SMILES) | pIC50
18 | N#CCCNc1nccc(-c2cn(CC(F)F)nc2-c2cnc3cc[nH]c3c2)n1 [Example B-36, 3-({4-[1-(2,2-difluoroethyl)-3-(1H-pyrrolo[3,2-b]pyridin-6-yl)-1H-pyrazol-4-yl]pyrimidin-2-yl}amino)propanenitrile] | 6.34
19 | CC(C)(O)CNc1nccc(-c2cn(CC(F)F)nc2-c2cnc3c(c2)CCN3)n1 [Example B-89, 1-(4-(1-(2,2-difluoroethyl)-3-(2,3-dihydro-1H-pyrrolo[2,3-b]pyridin-5-yl)-1H-pyrazol-4-yl)pyrimidin-2-ylamino)-2-methylpropan-2-ol] | 6.55
20 | Cc1n[nH]c2ncc(-c3nn(CC(F)F)cc3-c3ccnc(NC4CCOC4)n3)cc12 (stereo not drawn) [Example G-4, 4-[1-(2,2-difluoroethyl)-3-(3-methyl-1H-pyrazolo[3,4-b]pyridin-5-yl)-1H-pyrazol-4-yl]-N-(tetrahydrofuran-3-yl)pyrimidin-2-amine] | 6.11
21 | COc1cc(-c2nn(C(C)(C)C)cc2-c2ccnc(NCC(F)F)n2)cnc1N [Example B-54, 4-[3-(6-amino-5-methoxypyridin-3-yl)-1-tert-butyl-1H-pyrazol-4-yl]-N-(2,2-difluoroethyl)pyrimidin-2-amine] | 8.91
22 | C[C@H](O)CNc1nccc(-c2cn(CC(F)F)nc2-c2cnc3[nH]cc(C#N)c3c2)n1 [Example B-103, 5-[1-(2,2-difluoroethyl)-4-(2-{[(2S)-2-hydroxypropyl]amino}pyrimidin-4-yl)-1H-pyrazol-3-yl]-1H-pyrrolo[2,3-b]pyridine-3-carbonitrile] | 5.42
23 | COc1cc(-c2nn(CC(F)F)cc2-c2ccnc(NC[C@H](C)O)n2)cnc1N [Example B-104, (2S)-({4-[3-(6-amino-5-methoxypyridin-3-yl)-1-(2,2-difluoroethyl)-1H-pyrazol-4-yl]pyrimidin-2-yl}amino)propan-2-ol] | 8.02
24 | CC(C)n1cc(-c2ccnc(N)c2)c(-c2cnc3[nH]ccc3c2)n1 [Example H-2, 4-(1-isopropyl-3-(1H-pyrrolo[2,3-b]pyridin-5-yl)-1H-pyrazol-4-yl)pyridin-2-amine] | 5.99
25 | C[C@H](O)CNc1nccc(-c2cn(C3CCOC3)nc2-c2cnc3[nH]cc(Cl)c3c2)n1 (stereo partly drawn) [Example G-1, (2S)-1-(4-(3-(3-chloro-1H-pyrrolo[2,3-b]pyridin-5-yl)-1-(tetrahydrofuran-3-yl)-1H-pyrazol-4-yl)pyrimidin-2-ylamino)propan-2-ol] | 7.79
26 | CC(C)n1cc(-c2ccnc(NCCC#N)n2)c(-c2cnc3c(c2)CCN3)n1 [Example B-20, 3-({4-[3-(2,3-dihydro-1H-pyrrolo[2,3-b]pyridin-5-yl)-1-isopropyl-1H-pyrazol-4-yl]pyrimidin-2-yl}amino)propanenitrile] | 8.18
27 | Nc1nccc(-c2cn(C(F)F)nc2-c2cnc3[nH]cc(Cl)c3c2)n1 [Example B-43, 4-[3-(3-chloro-1H-pyrrolo[2,3-b]pyridin-5-yl)-1-(difluoromethyl)-1H-pyrazol-4-yl]pyrimidin-2-amine] | 7.36
28 | COc1cc(-c2n[nH]cc2-c2ccnc(N)n2)cnc1N [Example C-2, 4-[3-(6-amino-5-methoxypyridin-3-yl)-1H-pyrazol-4-yl]pyrimidin-2-amine] | 5.88
29 | FC(F)CNc1nccc(-c2cn(C3CCNCC3)nc2-c2cnc3[nH]cc(Cl)c3c2)n1 [Example B-77, 4-[3-(3-chloro-1H-pyrrolo[2,3-b]pyridin-5-yl)-1-piperidin-4-yl-1H-pyrazol-4-yl]-N-(2,2-difluoroethyl)pyrimidin-2-amine] | 7.52
30 | COc1nc(-c2nn(CC(F)F)cc2-c2ccnc(NC[C@H](C)O)n2)cnc1N [Example I-1, (2S)-1-({4-[3-(5-amino-6-methoxypyrazin-2-yl)-1-(2,2-difluoroethyl)-1H-pyrazol-4-yl]pyrimidin-2-yl}amino)propan-2-ol] | 5.55
31 | COc1cc(-c2nn(C(C)C)cc2-c2ccnc(NC3CC3)n2)cnc1N [Example B-16, 4-[3-(6-amino-5-methoxypyridin-3-yl)-1-isopropyl-1H-pyrazol-4-yl]-N-cyclopropylpyrimidin-2-amine] | 7.62
32 | CC(C)(C#N)n1cc(-c2ccnc(NCCO)n2)c(-c2cnc3[nH]cc(Cl)c3c2)n1 [Example G-5, 2-[3-(3-chloro-1H-pyrollo[2,3-b]pyridin-5-yl)-4-{2-[(2-hydroxyethyl)amino]pyrimidin-4-yl}-1H-pyrazol-1-yl]-2-methylpropanenitrile] | 7.70
33 | CC(C)(C#N)n1cc(-c2ccnc(N)n2)c(-c2cnc3[nH]cc(Cl)c3c2)n1 [Example G-6, 2-[4-(2-aminopyrimidin-4-yl)-3-(3-chloro-1H-pyrrolo[2,3-b]pyridin-5-yl)-1H-pyrazol-1-yl]-2-methylpropanenitrile] | 7.76

Reference: patent US7772246B2 (Pfizer Inc., priority 2007, dated 2010)
